# Publication PMC6199744, “Development of Chemical Proteomics for the Folateome and Analysis of the Kinetoplastid Folateome” (ACS Infectious Diseases, 2018)
# Several values for one entry are separate records, joined by “and”; a condition that tells them apart may be missing. Equal values may be shown once. Read-outs that look alike come from different tables or passages of the source.
# System: L. major lysate proteins
# Assay: Multitargeted bead mixture chemoproteomics, single concentration competition, proteome-wide
# Format: binding
# Conditions: for fold change: vehicle control = 1
smiles,measurement,setting,value
"Nc1nc2[nH]cc(CCc3ccc(C(=O)N[C@@H](CCC(=O)O)C(=O)O)cc3)c2c(=O)[nH]1 [PTX, pemetrexed]",fold change relative to vehicle control,,1.01 and 1.04 and 0.91
same,fold change vs vehicle control,,1.03 and 1.04 and 1
same,fold change vs vehicle control,protein CLI00016468.1 KIN[…] PROTEIN-11,0.68
same,fold change vs vehicle control,"protein LINJ.03.0240 RIBOSOMAL PROTEIN L38, PUTATIVE",1.03
same,fold change vs vehicle control,"protein LINJ.11.0780 40S RIBOSOMAL PROTEIN S21, PUTATIVE",0.99
same,fold change,protein LINJ.11.0960 40S RIBOSOMAL PROTEIN S5,1.07
same,fold change vs vehicle control,"protein LINJ.13.0990 […] SUBUNIT 2, PUTATIVE",1.06
same,fold change vs vehicle control,"protein LINJ.15.0330 RIBONUCLEOPROTEIN P18, MIT[…], PUTATIVE",1.08
same,fold change,"protein LINJ.19.0090 FIBRILLARIN, PUTATIVE",0.88
same,fold change,"protein LINJ.21.1790 40S RIBOSOMAL PROTEIN S11, PUTATIVE",1.08
same,fold change relative to vehicle control,"protein LINJ.23.0860, 3-KETOACYL-COA THIOLASE, PUTATIVE",1.16
same,fold change relative to vehicle control,"protein LINJ.24.2300, 60S RIBOSOMAL PROTEIN L12, PUTATIVE",0.96
same,fold change vs vehicle control,"protein LINJ.25.2230 SUCCINYL-COA […] SUBUNIT, PUTATIVE",0.97
same,fold change vs vehicle control,"protein LINJ.26.1630 40S RIBOSOMAL PROTEIN S33, PUTATIVE",0.99
same,fold change vs vehicle control,"protein LINJ.28.1100 RIBOSOMAL PROTEIN S20, PUTATIVE",0.99
same,fold change relative to vehicle control,"protein LINJ.28.1940, R[…] A, 51KDA SUBUNIT, PUTATIVE",0.99
same,fold change,"protein LINJ.28.2280 DYNEIN LIGHT CHAIN LC6, FLAGELLAR OUTER ARM, PUTATIVE",0.87
same,fold change,"protein LINJ.28.2870 PROTEIN PHOSPHATASE 4 CATALYTIC SUBUNIT, PUTATIVE",0.97
same,fold change relative to vehicle control,"protein LINJ.31.1600, CYTOCHROME C OXIDASE VIII (COX VIII), PUTATIVE",0.89
same,fold change relative to vehicle control,"protein LINJ.33.1730, CYCLOPHILIN 4, PUTATIVE",1.47
same,fold change vs vehicle control,"protein LINJ.34.0670 […]-ATP-ASE SUBUNIT 11, PUTATIVE,19S […]",0.91
same,fold change vs vehicle control,"protein LINJ.36.0780 PROTEIN KINASE, PUTATIVE,MITOGEN-ACTIVATED PROTEIN KINASE, PUTATIVE",0.92
same,fold change relative to vehicle control,"protein LINJ.36.3960, BASIC TRANSCRIPTION FACTOR 3A, PUTATIVE",1.33
same,fold change relative to vehicle control,"protein LINJ.36.4080, HY[…], CONSERVED",0.93
same,fold change,protein LINJ.36.4180 HS1VU COMPLEX P[…]-LIKE,0.92
same,fold change vs vehicle control,"protein LINJ.[…] LONG-CHAIN-FATTY-ACID-COA LIGASE, PUTATIVE",0.9
same,fold change,"protein LMJF.01.0570 TRICARBOXYLATE CARRIER, PUTATIVE",0.96
same,fold change relative to vehicle control,"protein LMJF.03.0200, DELTA-1-PYRROLINE-5-CARBOXYLATE DEHYDROGENASE, PUTATIVE",1.03
same,fold change,"protein LMJF.03.0230 LONG CHAIN FATTY ACYL COA SYNTHETASE, PUTATIVE",0.99
same,fold change,"protein LMJF.03.0980 […] 2 ALPHA SUBUNIT, PUTATIVE",0.97
same,fold change vs vehicle control,"protein LMJF.04.0630 HY[…], CONSERVED",0.99
same,fold change vs vehicle control,protein LMJF.04.1230 actin,1
same,fold change,"protein LMJF.05.0100 PHOSPHOPROTEIN PHOSPHATASE, PUTATIVE",0.71
same,fold change,"protein LMJF.05.0280 PROTEIN TYROSINE PHOSPHATASE, PUTATIVE",0.88
same,fold change,protein LMJF.05.0510 ATPASE ALPHA SUBUNIT,1.05
same,fold change,protein LMJF.05.1040 STOMATIN-LIKE PROTEIN,0.94
same,fold change,"protein LMJF.06.0650 […], PUTATIVE",0.89
same,fold change vs vehicle control,protein LMJF.07.0700 TOPOISOMERASE-RELATED FUNCTION PROTEIN-LIKE PROTEIN,0.73
same,fold change,protein LMJF.07.1000 RNA BINDING PROTEIN-LIKE PROTEIN,0.93
same,fold change relative to vehicle control,"protein LMJF.07.1140, PEPTIDE […] REDUCTASE-LIKE",1.13
same,fold change,"protein LMJF.08.0510 RIBOSE-PHOSPHATE PYROPHOSPHOKINASE, PUTATIVE",0.89
same,fold change vs vehicle control,protein LMJF.08.0550 T[…]-LIKE PROTEIN,0.98
same,fold change relative to vehicle control,"protein LMJF.08.1030, cathepsin L-like protease",1.04
same,fold change vs vehicle control,"protein LMJF.08.1100 HY[…], CONSERVED",0.92
same,fold change vs vehicle control,"protein LMJF.09.1010 HY[…], CONSERVED",0.89
same,fold change relative to vehicle control,"protein LMJF.09.1120, MIT[…] BINDING PROTEIN 2,MRP2, GBP25",1
same,fold change vs vehicle control,"protein LMJF.09.1260 HY[…], CONSERVED",0.97
same,fold change,"protein LMJF.10.0210 NUCLEOLAR PROTEIN, PUTATIVE",0.99
same,fold change vs vehicle control,"protein LMJF.10.0310 PROTEIN TRANSPORT PROTEIN SEC23, PUTATIVE",1.04
same,fold change,"protein LMJF.11.0590 3-METHYLCROTONOYL-COA C[…] SUBUNIT, PUTATIVE",0.95
same,fold change relative to vehicle control,"protein LMJF.11.0630, AMINOPEPTIDASE, PUTATIVE,METALLO-PEPTIDASE, CLAN MF, FAMILY M17",1.06
same,fold change vs vehicle control,"protein LMJF.11.1050 PRETRA[…], ALPHA SUBUNIT, PUTATIVE,SEC61-LIKE (PRETRA[…]) PROTEIN, PUTATIVE",0.96
same,fold change,"protein LMJF.11.1160 PROTEIN TRANSPORT PROTEIN SEC31, PUTATIVE",0.76
same,fold change,"protein LMJF.12.0030 […]-1 SUBUNIT, PUTATIVE",0.94
same,fold change vs vehicle control,"protein LMJF.12.0210 […] SUBUNITTCC1L8 3, PUTATIVE",0.96
same,fold change relative to vehicle control,"protein LMJF.12.0530, GLUCOSE-6-PHOSPHATE ISOMERASE",1.26
same,fold change,protein LMJF.12.0630 ALANINE AMINOTRANSFERASE,0.86
same,fold change vs vehicle control,"protein LMJF.13.1230 40S RIBOSOMAL PROTEIN S4, PUTATIVE",1.13
same,fold change vs vehicle control,"protein LMJF.14.0310 […] 3 SUBUNIT, PUTATIVE",1.03
same,fold change,"protein LMJF.14.0660 FATTY ACID ELONGASE, PUTATIVE",0.92
same,fold change,"protein LMJF.14.0670 FATTY ACID ELONGASE, PUTATIVE",0.87
same,fold change vs vehicle control,"protein LMJF.14.0680 FATTY ACID ELONGASE, PUTATIVE",1.08
same,fold change,protein LMJF.14.0990 ADP/ATP MIT[…]-LIKE PROTEIN,1.14
same,fold change vs vehicle control,protein LMJF.14.1160 ENOLASE,1.01
same,fold change,"protein LMJF.14.1440 HY[…], CONSERVED (cytoskeleton associated protein, putative)",0.74
